Experimental data: publication PMC9016025, “Translational imaging of the fibroblast activation protein (FAP) using the new ligand [^68Ga]Ga-OncoFAP-DOTAGA” (European Journal of Nuclear Medicine and Molecular Imaging, 2021)
Where two headings read alike, the source gives them in different places.

Tests used:
[1] = test system: subcutaneous HT1080 (FAP−) and HT1080-hFAP (FAP+) tumors; experiment: Gamma counting biodistribution in tumor-bearing mice; format: in vivo, mouse
Procedure: For tumor-xenograft models, female NMRI nu/nu mice (Janvier, France), 8–9 weeks old, were housed at a constant temperature (22 °C) and relative humidity (40–55%) under a regular light/dark schedule. Food and water were available ad libitum.
Tumor cells (10^6 cells in 50 μL saline) were implanted subcutaneously in the shoulders of NMRI mice with HT1080 wildtype (FAP^−) in one shoulder and with stably transfected human FAP-expressing HT1080 cells (FAP^+) in the contralateral shoulder. Cells were kindly provided by U. Haberkorn, University of Heidelberg. At day 11 after implantation, mice received whole-body PET/MRI (1 T Mediso nanoScan) imaging with list mode PET for 60 min and additional non-contrast-enhanced anatomic, coronal T1-weighted MRI, followed by late static PET/MRI imaging 180 min p.i. Either ^68Ga-OncoFAP or ^68Ga-FAPI-46 (n = 6 each) was injected into the tail vein with a syringe pump at 1000 μL/min in a volume of 100 μL 30 s after the start of PET. At the next day (day 12 after implantation), the same mice were injected with the respective other FAP-tracer and received identical dynamic PET/MRI for 60 min. […] All involved measuring hardware (dose calibrator ISOMED 2010, automatic γ-counter PERKIN ELMER WALAC 2480, Twilite coincidence detector Swisstrace, PET/MRI) were cross-calibrated for ^68Ga. Overall, 3 scans were rejected, because of extravasation (day 11 OncoFAP), inability of i.v. access (day 12 FAPI-46), and insufficient radioactivity (day 12 FAPI-46), respectively. The resulting injected amounts of radioactivity for the remaining 11 ^68Ga-OncoFAP scans and 10 ^68Ga-FAPI-46 scans were 19.2 ± 4.4 MBq and 18.2 ± 4.8 MBq, respectively.

[2] = test system: subcutaneous HT1080 (FAP−) and HT1080-hFAP (FAP+) tumors; experiment: Dynamic and late static small animal PET/MRI in tumor-bearing mice; format: in vivo, mouse
Procedure: Tumor cells (10^6 cells in 50 μL saline) were implanted subcutaneously in the shoulders of NMRI mice with HT1080 wildtype (FAP^−) in one shoulder and with stably transfected human FAP-expressing HT1080 cells (FAP^+) in the contralateral shoulder. Cells were kindly provided by U. Haberkorn, University of Heidelberg. At day 11 after implantation, mice received whole-body PET/MRI (1 T Mediso nanoScan) imaging with list mode PET for 60 min and additional non-contrast-enhanced anatomic, coronal T1-weighted MRI, followed by late static PET/MRI imaging 180 min p.i. Either ^68Ga-OncoFAP or ^68Ga-FAPI-46 (n = 6 each) was injected into the tail vein with a syringe pump at 1000 μL/min in a volume of 100 μL 30 s after the start of PET. At the next day (day 12 after implantation), the same mice were injected with the respective other FAP-tracer and received identical dynamic PET/MRI for 60 min. Sixty minutes p.i., mice were sacrificed under deep narcosis and organs and body fluids were harvested, weighed, and γ-counted. All involved measuring hardware (dose calibrator ISOMED 2010, automatic γ-counter PERKIN ELMER WALAC 2480, Twilite coincidence detector Swisstrace, PET/MRI) were cross-calibrated for ^68Ga. Overall, 3 scans were rejected, because of extravasation (day 11 OncoFAP), inability of i.v. access (day 12 FAPI-46), and insufficient radioactivity (day 12 FAPI-46), respectively. The resulting injected amounts of radioactivity for the remaining 11 ^68Ga-OncoFAP scans and 10 ^68Ga-FAPI-46 scans were 19.2 ± 4.4 MBq and 18.2 ± 4.8 MBq, respectively.
Dynamic PET scans were reconstructed in time frames of 1 × 30 s, 5 × 12 s, 5 × 60 s, 4 × 300 s, 2 × 600 s, and 1 × 810 s. Frames 12 and 18 and the late scan are referred to as (rounded) 10 min, 1 h, and 3 h throughout the manuscript. Volume of interests (VOI) of tumors and representative organs were defined on anatomic MRI. Resulting tumor volumes for ^68Ga-OncoFAP scans for FAP^+ and FAP^− tumors were 0.4 ± 0.36 and 0.22 ± 0.15, and for FAPI-46 scans were 0.34 ± 0.20 and 0.2 ± 0.17 (n.s. different between the two tracers).

[3] = test system: patients with breast cancer; set-up: method as in PMID 34636633; settings: previously published patient sample, cited from earlier work

Work on `CN(CCCN1CCN(C(=O)CN2CCN(CC(=O)[O-])CCN(CC(=O)[O-])CCN(CC(=O)[O-])CC2)CC1)c1ccc2nccc(C(=O)NCC(=O)N3CC(F)(F)C[C@H]3C#N)c2c1.[68Ga+3]` [^68Ga-FAPI-46, [^68Ga]Ga-FAPI-46] yielded an organ-to-blood ratio brain ([1]; gamma counting 1 h p.i.) of 0.06 ± 0.01, an organ-to-blood ratio heart ([1]; gamma counting 1 h p.i.) of 0.36 ± 0.04 and an organ-to-blood ratio kidney ([1]; gamma counting 1 h p.i.) of 11.58 ± 8.84. For the same compound, the organ-to-blood ratio liver ([1]; gamma counting 1 h p.i.) was 0.70 ± 0.23, the organ-to-blood ratio lung ([1]; gamma counting 1 h p.i.) was 1.84 ± 1.04 and the organ-to-blood ratio muscle ([1]; gamma counting 1 h p.i.) was 0.31 ± 0.11. The organ-to-blood ratio spleen ([1]; gamma counting 1 h p.i.) was 0.43 ± 0.06, the “organ-to-blood ratio tumor FAP+ (tumor-to-blood ratio)” value ([1]; gamma counting 1 h p.i.) was 1.98 ± 0.92 and the “organ-to-blood ratio tumor FAP-” value ([1]; gamma counting 1 h p.i.) was 0.55 ± 0.08. It also gave an uptake blood ([1]; gamma counting 1 h p.i.) of 0.69 ± 0.15 % ID/g, an uptake heart ([1]; gamma counting 1 h p.i.) of 0.25 ± 0.07 % ID/g and an uptake kidney ([1]; gamma counting 1 h p.i.) of 8.58 ± 7.52 % ID/g. For the same compound, the uptake liver ([1]; gamma counting 1 h p.i.) was 0.46 ± 0.06 % ID/g, the uptake lung ([1]; gamma counting 1 h p.i.) was 1.17 ± 0.43 % ID/g and the uptake muscle ([1]; gamma counting 1 h p.i.) was 0.21 ± 0.07 % ID/g. The uptake plasma ([1]; gamma counting 1 h p.i.) was 1.02 ± 0.30 % ID/g, the uptake spleen ([1]; gamma counting 1 h p.i.) was 0.29 ± 0.05 % ID/g and the “uptake tumor FAP+” value ([1]; gamma counting 1 h p.i.) was 1.28 ± 0.40 % ID/g. The “uptake tumor FAP-” value ([1]; gamma counting 1 h p.i.) was 0.38 ± 0.12 % ID/g, the uptake urine ([1]; gamma counting 1 h p.i.) was 525.55 ± 279.13 % ID/g and the organ-to-blood ratio brain ([1]; gamma counting 3 h p.i.) was 0.15 ± 0.10. The organ-to-blood ratio heart ([1]; gamma counting 3 h p.i.) was 0.51 ± 0.23, the organ-to-blood ratio kidney ([1]; gamma counting 3 h p.i.) was 10.39 ± 5.81 and the organ-to-blood ratio liver ([1]; gamma counting 3 h p.i.) was 1.73 ± 1.28. It also gave an organ-to-blood ratio lung ([1]; gamma counting 3 h p.i.) of 2.27 ± 1.98, an organ-to-blood ratio muscle ([1]; gamma counting 3 h p.i.) of 0.38 ± 0.26 and an organ-to-blood ratio spleen ([1]; gamma counting 3 h p.i.) of 0.78 ± 0.47. For the same compound, the “organ-to-blood ratio tumor FAP+ (tumor-to-blood ratio)” value ([1]; gamma counting 3 h p.i.) was 28.62 ± 17.69, the “organ-to-blood ratio tumor FAP-” value ([1]; gamma counting 3 h p.i.) was 1.15 ± 0.67 and the uptake blood ([1]; gamma counting 3 h p.i.) was 0.22 ± 0.31 % ID/g. The uptake brain ([1]; gamma counting 3 h p.i.) was 0.01 ± 0.00 % ID/g, the uptake heart ([1]; gamma counting 3 h p.i.) was 0.05 ± 0.02 % ID/g and the uptake kidney ([1]; gamma counting 3 h p.i.) was 0.98 ± 0.60 % ID/g. The uptake liver ([1]; gamma counting 3 h p.i.) was 0.14 ± 0.03 % ID/g, the uptake lung ([1]; gamma counting 3 h p.i.) was 0.17 ± 0.06 % ID/g and the uptake muscle ([1]; gamma counting 3 h p.i.) was 0.04 ± 0.02 % ID/g. For the same compound, the uptake plasma ([1]; gamma counting 3 h p.i.) was 0.38 ± 0.53 % ID/g, the uptake spleen ([1]; gamma counting 3 h p.i.) was 0.07 ± 0.02 % ID/g and the “uptake tumor FAP+” value ([1]; gamma counting 3 h p.i.) was 2.64 ± 0.60 % ID/g. The “uptake tumor FAP-” value ([1]; gamma counting 3 h p.i.) was 0.11 ± 0.03 % ID/g, the SUVmean blood ([2]; small animal PET 10 min p.i.) was 0.52 ± 0.09 and the SUVmean kidney ([2]; small animal PET 10 min p.i.) was 1.43 ± 0.88. It also gave an SUVmean liver ([2]; small animal PET 10 min p.i.) of 0.57 ± 0.17, an SUVmean muscle ([2]; small animal PET 10 min p.i.) of 0.35 ± 0.07 and an SUVmean spleen ([2]; small animal PET 10 min p.i.) of 0.40 ± 0.19. The “SUVmean tumor FAP+” value ([2]; small animal PET 10 min p.i.) was 0.40 ± 0.07, the “SUVmean tumor FAP-” value ([2]; small animal PET 10 min p.i.) was 0.39 ± 0.07 and the SUVmean blood ([2]; small animal PET 1 h p.i.) was 0.19 ± 0.07. For the same compound, the SUVmean kidney ([2]; small animal PET 1 h p.i.) was 0.54 ± 0.54, the SUVmean liver ([2]; small animal PET 1 h p.i.) was 0.28 ± 0.16 and the SUVmean muscle ([2]; small animal PET 1 h p.i.) was 0.08 ± 0.04. The SUVmean spleen ([2]; small animal PET 1 h p.i.) was 0.15 ± 0.07, the “SUVmean tumor FAP+” value ([2]; small animal PET 1 h p.i.) was 0.25 ± 0.06 and the “SUVmean tumor FAP-” value ([2]; small animal PET 1 h p.i.) was 0.10 ± 0.05. It also gave an SUVmean kidney ([2]; small animal PET 3 h p.i.) of 0.07 ± 0.02, an SUVmean liver ([2]; small animal PET 3 h p.i.) of 0.28 ± 0.19 and an SUVmean muscle ([2]; small animal PET 3 h p.i.) of 0.02 ± 0.00. For the same compound, the SUVmean spleen ([2]; small animal PET 3 h p.i.) was 0.09 ± 0.06, the “SUVmean tumor FAP+” value ([2]; small animal PET 3 h p.i.) was 0.16 ± 0.06 and the “SUVmean tumor FAP-” value ([2]; small animal PET 3 h p.i.) was 0.02 ± 0.01. The “Blood (prone SUVmean)” value [3] was 1.7 ± 0.2, the “Blood (supine SUVmean)” value [3] was 1.3 ± 0.3 and the “Bone (supine SUVmean)” value [3] was 0.4 ± 0.1. The “Breast cancer LN metastasis (supine SUVmax)” value [3] was 12.2 ± 6.2 (n = 13), the “Distant metastases any cancer (supine SUVmax)” value [3] was 12.3 ± 0.2 (n = 2) and the “Kidney (supine SUVmean)” value [3] was 1.5 ± 0.4. For the same compound, the “Liver (supine SUVmean)” value [3] was 0.9 ± 0.3, the “Muscle (supine SUVmean)” value [3] was 1.1 ± 0.2 and the “Pancreas (supine SUVmean)” value [3] was 1.1 ± 0.4. The “Primary breast cancer (prone SUVmax)” value [3] was 14.0 ± 5.7 (n = 17), the “Spleen (supine SUVmean)” value [3] was 1.1 ± 0.8 and the “Uterus (supine SUVmax)” value [3] was 11.6 ± 4.5 (n = 18). The “Uterus (supine SUVmax)” value ([3]; listed as FAPI-46) was 11.6 ± 4.5.
